From patent EP4696708A1, “PEPTIDE TYROSINE-TYROSINE ANALOG AND USE THEREOF” (The United Bio-Technology (Hengqin) Co., Ltd., priority 2023, dated 2024)
*1 amine or outer side, *2 acyl side, *3 side chain or, on linkers, in order; H or OH if unused. Where a SMILES comes first, the peptide text is derived from it. Side-chain parts run from the residue outwards. [ ]: non-standard residue; d: D form. The star is where a group is joined. C18 diacid = O=C(O)CCCCCCCCCCCCCCCCC(=O)*; γGlu = O=C(O)[C@H](CCC(=O)[*:2])N[*:1]; AEEA = NCCOCCOCC(=O)O; Aib = CC(C)(N)C(=O)O

Legend:
hNPY1R = target: T1, hNPY1R (Homo sapiens, UniProt P25929); assay: calcium flux assay (FLIPR), in vitro functional activity on human NPY1 receptor; type: cell-based; conditions: initial concentration 1 µM, average of at least 3 independent tests
T1 sequence (P25929 1-384): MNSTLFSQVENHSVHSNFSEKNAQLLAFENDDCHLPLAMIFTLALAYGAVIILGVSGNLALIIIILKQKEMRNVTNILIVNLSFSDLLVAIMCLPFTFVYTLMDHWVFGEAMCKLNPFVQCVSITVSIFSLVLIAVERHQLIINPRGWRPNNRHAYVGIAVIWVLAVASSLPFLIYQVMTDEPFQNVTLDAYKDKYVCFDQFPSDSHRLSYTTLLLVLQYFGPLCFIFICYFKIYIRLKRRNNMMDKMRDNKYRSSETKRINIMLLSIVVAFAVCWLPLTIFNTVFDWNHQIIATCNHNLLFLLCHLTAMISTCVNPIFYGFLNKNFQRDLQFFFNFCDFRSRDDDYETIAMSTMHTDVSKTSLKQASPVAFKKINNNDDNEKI
Procedure: • 1) Preparation of test analogue and positive reference agonist: the test analogue was diluted 4-fold to 10 concentrations using Bravo, transferred 900 nL to the analogue plate using Echo, and then added with 30 µL of detection buffer (20 mM HEPES, 1×HBSS, 0.1% casein) to each well. The initial concentration of the test analogue and the positive reference agonist were 1 µM. • 2) The cell plate was removed from the incubator (cell Y1 needs to be removed of the culture medium and added with 20 µL of detection buffer, otherwise they will all be a high signal; it is not necessary for Y5), added with 2*Fluo-4 detection reagent, 20 µL per well, incubated in a 37°C incubator for 50 minutes, and then left to stand at room temperature for 10 minutes. • 3) The cell plate, the analogue plate, and the pipette tip were placed into the FLIPR instrument, the instrument was started, and 10 µL of analogue was transferred from the analogue plate to the cell plate. […] Using the logarithm of the concentration of analogues as the horizontal axis and the activation rate of calcium ion fluorescence signal as the vertical axis, the "Nonlinear regression (curve fit)-log (antigen) vs. response Variable slope" model in GraphPad Prism 5.0 was used for fitting to calculate the EC50 of the sample.

[1] = target: T2, recombinant human NPY2 receptor (Homo sapiens, UniProt P49146); assay: cAMP assay, in vitro functional activity on NPY2 receptors (inhibition of Forskolin-induced cAMP production); type: cell-based; conditions: HEK 293 cells overexpressing recombinant human NPY2 receptor; average of at least 3 independent tests; read-out: hNPY2R EC50
T2 construct: expressed in transfected cells; host or cells: HEK 293
T2 sequence (P49146 1-381): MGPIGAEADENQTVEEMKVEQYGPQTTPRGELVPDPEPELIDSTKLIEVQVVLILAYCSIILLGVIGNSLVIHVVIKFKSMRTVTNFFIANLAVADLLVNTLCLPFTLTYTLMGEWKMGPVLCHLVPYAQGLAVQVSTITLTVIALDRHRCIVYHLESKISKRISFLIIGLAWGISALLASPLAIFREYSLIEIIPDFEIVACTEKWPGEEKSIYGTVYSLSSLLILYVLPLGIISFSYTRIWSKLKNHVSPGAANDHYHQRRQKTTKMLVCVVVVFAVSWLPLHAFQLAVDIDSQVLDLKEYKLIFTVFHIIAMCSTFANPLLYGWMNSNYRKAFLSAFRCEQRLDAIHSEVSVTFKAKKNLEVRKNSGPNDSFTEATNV
Procedure: After addition, they were centrifuged at 1000 rpm for 1 minute. • 5) 5 µL of 2 µM Forskolin (prepared with detection buffer) was added to a 384-well cell reaction plate using Multidrop Combi and centrifuged at 1000 rpm for 1 minute. 5 µL of detection buffer containing cells was added to a 384-well reaction plate, ensuring a cell count of 3000 cells per well. […] It was covered with a lid and incubated at room temperature in the dark for 1 hour. • 7) After incubation for 1 hour, it was placed in an EnVision microplate reader for measurement.

[2] = plasma pharmacokinetics in crab-eating macaques (LC-MS/MS); type: in vivo; conditions: monkey, sc, male crab-eating macaques, single subcutaneous 0.246 mg/kg
Procedure: (§1) Blood samples were collected from each animal at each time point after administration, and the blood samples were centrifuged at around 4°C, 3200 g, for 10 minutes. Plasma was collected separately, transferred to pre-labeled 96-well plates or polypropylene tubes, speedily frozen on dry ice, and stored at -60°C or lower until LC-MS/MS analysis.
(§2) LC-MS/MS method was adopted to determine the concentration of the measured analogues in blood samples. The data on the changes in plasma concentration over time were plotted into a chart and analyzed using non partitioned methods with Phoenix WinNonlin 6.3 software program. Relevant PK parameters were calculated based on the administration routes.
The plasma pharmacokinetics of PYY analogues in male crab-eating macaques were evaluated after a single subcutaneous administration of 0.246 mg/kg Analogue 3. Blood samples were collected from 2 crab-eating macaques at each time point after administration for 1h, 2h, 4h, 8h, 12h, 24h, 48h, 72h, 96h, 120h, 144h, 168h, 192h, 240h, 288h, 336h, 408h, 504h, extending to 504 hours. Due to the use of discontinuous sampling to evaluate the kinetics of PYY analogues in crab-eating macaques, the pharmacokinetic parameters of Analogue 3 after a single subcutaneous administration of 0.246 mg/kg were listed using average concentration-time data.

[3] = plasma pharmacokinetics in SD rats (LC-MS/MS); type: in vivo; conditions: rat, sc, male rats, single subcutaneous 0.492 mg/kg
Procedure: as §1, §2
The plasma pharmacokinetics of PYY analogues in male SD rats were evaluated after a single subcutaneous administration of 0.492 mg/kg Analogue 3. Blood samples were collected from 3 rats at each time point after administration for 0.5h, 1h, 2h, 4h, 8h, 12h, 16h, 24h, 48h, 72h, 96h, 120h, 144h, 168h, extending to 168h. Due to the use of discontinuous sampling to evaluate the kinetics of PYY analogues in rats, the pharmacokinetic parameters of Analogue 3 after a single subcutaneous administration of 0.492 mg/kg were listed using average concentration-time data.

Row | EC50 (hNPY1R) [pM] | EC50 [1] [pM] | AUC(0-inf) [2] [µg·h/mL] | Cmax [2] [ng/mL] | Tmax [2] [h] | half-life [2] [h] | AUC(0-inf) [3] [µg·h/mL] | Cmax [3] [ng/mL] | Tmax [3] [h] | half-life [3] [h] | SMILES
1 | > 50000 |  |  |  |  |  |  |  |  |  | CC(C)C[C@H](NC(=O)[C@H](Cc1ccc(O)cc1)NC(=O)[C@H](Cc1c[nH]cn1)NC(=O)[C@H](CCCNC(=N)N)NC(=O)[C@H](CC(C)C)NC(=O)[C@H](CO)NC(=O)C(C)(C)NC(=O)[C@H](Cc1ccc(O)cc1)NC(=O)[C@H](Cc1ccc(O)cc1)NC(=O)[C@H](CCCNC(=N)N)NC(=O)[C@H](CCC(N)=O)NC(=O)[C@H](Cc1c[nH]c2ccccc12)NC(=O)[C@H](CCC(=O)O)NC(=O)[C@H](CCC(=O)O)NC(=O)[C@@H]1CCCN1C(=O)[C@H](CO)NC(=O)C(C)(C)NC(=O)[C@H](CC(=O)O)NC(=O)[C@H](CCC(=O)O)NC(=O)[C@H](CCC(=O)O)NC(=O)[C@@H]1CCCN1C(=O)[C@H](CCCCNC(=O)COCCOCCNC(=O)CC[C@H](NC(=O)CCCCCCCCCCCCCCCCC(=O)O)C(=O)O)NC(=O)[C@H](CCC(=O)O)NC(=O)[C@@H]1CCCN1C(=O)[C@H](CCCCN)NC(=O)[C@@H]1CCCN1)C(=O)N[C@@H](CC(N)=O)C(=O)N[C@@H](Cc1c[nH]c2ccccc12)C(=O)N[C@@H](CC(C)C)C(=O)N[C@H](C(=O)N[C@@H](CCCNC(=N)N)C(=O)N[C@@H](CCC(N)=O)C(=O)N[C@@H](CCCNC(=N)N)C(=O)N[C@@H](Cc1ccc(O)cc1)C(N)=O)[C@@H](C)O [Analogue 1] (H-PKPEK([AEEA-γGlu-C18 diacid])PEED[Aib]SPEEWQRYY[Aib]SLRHYLNWLTRQRY-NH2)
2 | > 50000 | 37 |  |  |  |  |  |  |  |  | CC(C)C[C@H](NC(=O)[C@H](CCC(=O)O)NC(=O)[C@H](C)NC(=O)[C@H](Cc1ccc(O)cc1)NC(=O)[C@H](Cc1ccc(O)cc1)NC(=O)[C@H](CCCNC(=N)N)NC(=O)[C@H](CCC(N)=O)NC(=O)[C@H](Cc1c[nH]c2ccccc12)NC(=O)[C@H](CCC(=O)O)NC(=O)[C@H](CCC(=O)O)NC(=O)[C@@H]1CCCN1C(=O)[C@H](CO)NC(=O)[C@H](C)NC(=O)[C@H](CC(=O)O)NC(=O)C(C)(C)NC(=O)[C@H](CCC(=O)O)NC(=O)[C@@H]1CCCN1C(=O)[C@H](CCCCNC(=O)COCCOCCNC(=O)CC[C@H](NC(=O)CCCCCCCCCCCCCCCCC(=O)O)C(=O)O)NC(=O)[C@H](CCC(=O)O)NC(=O)[C@@H]1CCCN1C(=O)[C@H](CCCCN)NC(=O)[C@@H]1CCCN1)C(=O)N[C@@H](CCCNC(=N)N)C(=O)N[C@@H](Cc1c[nH]cn1)C(=O)N[C@@H](Cc1ccc(O)cc1)C(=O)N[C@@H](CC(C)C)C(=O)N[C@@H](CC(N)=O)C(=O)N[C@@H](Cc1c[nH]c2ccccc12)C(=O)N[C@@H](CC(C)C)C(=O)N[C@H](C(=O)N[C@@H](CCCNC(=N)N)C(=O)N[C@@H](CCC(N)=O)C(=O)N[C@@H](CCCNC(=N)N)C(=O)N[C@@H](Cc1ccc(O)cc1)C(N)=O)[C@@H](C)O [Analogue 2]
3 | > 50000 | 37 | 337 | 1780 | 12 | 126 | 79.6 | 1940 | 13.3 | 24.7 | CC(C)C[C@H](NC(=O)[C@H](Cc1ccc(O)cc1)NC(=O)[C@H](Cc1c[nH]cn1)NC(=O)[C@H](CCCNC(=N)N)NC(=O)[C@H](CC(C)C)NC(=O)[C@H](CCC(=O)O)NC(=O)C(C)(C)NC(=O)[C@H](Cc1ccc(O)cc1)NC(=O)[C@H](Cc1ccc(O)cc1)NC(=O)[C@H](CCCNC(=N)N)NC(=O)[C@H](CCC(N)=O)NC(=O)[C@H](Cc1c[nH]c2ccccc12)NC(=O)[C@H](CCC(=O)O)NC(=O)[C@H](CCC(=O)O)NC(=O)[C@@H]1CCCN1C(=O)[C@H](CO)NC(=O)[C@H](C)NC(=O)[C@H](CC(=O)O)NC(=O)C(C)(C)NC(=O)[C@H](CCC(=O)O)NC(=O)[C@@H]1CCCN1C(=O)[C@H](CCCCNC(=O)COCCOCCNC(=O)CC[C@H](NC(=O)CCCCCCCCCCCCCCCCC(=O)O)C(=O)O)NC(=O)[C@H](CCC(=O)O)NC(=O)[C@@H]1CCCN1C(=O)[C@H](CCCCN)NC(=O)[C@@H]1CCCN1)C(=O)N[C@@H](CC(N)=O)C(=O)N[C@@H](Cc1c[nH]c2ccccc12)C(=O)N[C@@H](CC(C)C)C(=O)N[C@H](C(=O)N[C@@H](CCCNC(=N)N)C(=O)N[C@@H](CCC(N)=O)C(=O)N[C@@H](CCCNC(=N)N)C(=O)N[C@@H](Cc1ccc(O)cc1)C(N)=O)[C@@H](C)O [Analogue 3]
